1 molecule from patent publication US9980972B2, “Rho kinase inhibitors for use in treating familial amyotrophic lateral sclerosis” (GEORG-AUGUST-UNIVERSITÄT GÖTTINGEN STIFTUNG ÖFFENTLICHEN …, priority 2012, dated 2018) can be followed below.

Series [1] has as its system SOD1 G93A mouse model of ALS. In words: Disease duration (onset until death) in SOD1 G93A mice. It is filed as in vivo. The source says:
Disease duration. This parameter was selected in order analyze the treatment effects under a clinically relevant situation of the time from disease onset until death. Disease duration is defined as beginning from the appearance of the first clinical symptoms until death.

For series [2], the system named is mono-cultures of primary motoneurons. In words: Kainic acid toxicity in motoneuron mono-culture. It is filed as cell-based.
The subject of series [3] is SOD1 G93A mouse model of ALS. In words: Hanging wire test (crude muscular strength), time to failure of 180 s. It is filed as in vivo. Particulars: either treatment groups of both sexes. The source says: The hanging wire test evaluates crude grip strength of the upper extremities.
The hanging wire performance evaluating crude muscular strength in the task to reach a total hanging wire time of 180 s was not different in either treatment groups of both sexes (FIG. 6). Wildtype animals always reached the maximum time of 180 s (data not shown).

The subject of the next series is primary microglia. In words: Microglial viability, WST-1 metabolic activity. It is filed as cell-based, mouse. Particulars: up to 50 μM Fasudil. The protocol:
Microglial viability was assayed as metabolic activity using WST-1 reagent (4-[3-(4-iodophenyl)-2-(4-nitrophenyl)-2H-5-tetrazolio]-1,3-benzene disulfonate), based on the enzymatic cleavage of WST tetrazolium salt to formazan by the succinate-tetrazolium reductase system of the respiratory chain of intact mitochondria. The assay was performed according to the instructions of the manufacturer (Roche Applied Science, Mannheim, Germany). After 3 h of incubation, the resulting color reaction was measured at 450 nm (with 655 nm as the reference wavelength) in a microplate reader (Bio-Rad, Munich, Germany).

Series [4] has as its system wildtype primary motoneurons in astrocyte/motoneuron co-culture. In words: Kainic acid toxicity in astrocyte/motoneuron co-culture. It is filed as cell-based. Particulars: KA exposure 24 h, Fasudil 4 or 20 μM, co-culture with astrocytes.
Description: In order to compare the Fasudil neuroprotective effect on motoneurons in vivo with an corresponding in vitro paradigm the inventors subjected wildtype primary motoneurons cultured in a astrocyte/motoneuron co-culture to kainic acid (KA) toxicity.
Series [5] has as its system neuromuscular junctions of SOD1 G93A mice. In words: NMJ integrity of gastrocnemius muscle. It is filed as in vivo, mouse. Particulars: Fasudil vs control treated animals.
Series [6] relates to SOD1 G93A mouse model of ALS. In words: Disease onset by neurological score in SOD1 G93A mice. It is filed as in vivo. Particulars: treated from d50 or from d80, differentiated by gender. The protocol: Neurological Score. Neurological scores were assessed every three days for each mouse from 50 days of age. The neurological score employed a scale of 0 to 4 that had been developed in ALS mouse trials before. Score criteria used to assign each score level were: • 4 Full extension of hind legs away from lateral midline when mouse is suspended by its tail, and mouse can hold this for 2 seconds, suspended 2-3 times. • 3 Collapse or partial collapse of leg extension towards lateral midline (weakness) or trembling of hind legs during tail suspension. • 2 Toes curl under at least twice during walking of 10 cm, or any part of foot is dragging along cage bottom/table. • 1 Rigid paralysis or minimal joint movement, foot not being used for forward motion*. * If score criterion 2 is reached, food pellets are left on bedding and water is additionally placed in a well on the bedding. • 0 Mouse cannot right itself within 30 seconds from either side.
Onset of disease is defined as reaching neurological score 3 (collapse or partial collapse of leg extension towards lateral midline (weakness) or trembling of hind legs during tail suspension).

Series [7] has as its system SOD1 wt and SOD1G93A microglia. In words: LPS-triggered cytokine/chemokine release of primary microglia (ELISA). Particulars: 18 hours; for proinflammatory cytokine release: SOD1 wt and SOD1G93A microglia. It is filed as cell-based, mouse. The protocol: Primary cell cultures were prepared from whole brains of newborn (PO) mice and cultured in complete Dulbecco's modified Eagle's medium (DMEM, Invitrogen/Gibco, Karlsruhe, Germany), supplemented with 10% fetal calf serum (FCS, Invitrogen/Gibco), 100 U/ml penicillin and 100 μg/ml streptomycin (both Biochrom, Berlin, Germany) as previously described (Regen, et al. (2011) Brain, Behavior, and Immunity 25(5): 957-970). In brief, brains of newborn B6/SJL SOD1G93A and from B6/SJL SOD1wt, respectively, were liberated from meninges and blood vessels, washed with Hank's balanced salt solution (HBSS; Biochrom) and incubated with 2.5% trypsin (Biochrom) for 10 min at 37° C. The enzymatic reaction was stopped by addition of complete medium, supplemented with DNAse [5 mg/ml] (Worthington Biochemicals, Lakewood, N.J., USA). Remaining cell clusters were mechanically separated and the suspension was centrifuged at 900 rpm at 4° C. for 10 min. The supernatant was removed, cells were resuspended in fresh complete medium and seeded in 75 cm2, poly-L-lysine (PLL)-coated culture flasks. Immediately before being used, flasks were incubated with 100 μg/ml PLL (Invitrogen/Gibco) for 30 min at RT and excess of PLL was washed off by three rinses with sterile ddH2O. Subsequently, cultures were maintained in a humidified atmosphere with 5% CO2 at 37° C. On the next day, primary mixed-glial cultures were washed three times (PBS, Invitrogen/Gibco) and received fresh complete medium, the latter being repeated the following day. One week after seeding, microglial proliferation was stimulated by adding complete medium supplemented with 30% of L929-conditioned cell culture supernatant (see section “L929 Mouse Fibroblast Cultures” below). After another two days, microglial cells were harvested by shaking them off the astrocytic layer, taking advantage of their different adhesion properties. After washing with complete medium and counting, cells were plated in 96-well plates at a density of 15,000 cells/well for ELISA or were plated in 24-well plates at a density of 50,000 cells/well on PLL-coated coverslips for later immunocytochemical processing.
Primary cultures underwent five different general treatments: (a) Cells were left untreated in medium serving as controls. (b) Cells were stimulated with the TLR4 ligand LPS (E. coli R515; Axxora/Appotech TLR ligand set 1, APO.54N-018) for 18 hours at a final concentration of 10 ng/ml. (c) Cells underwent a treatment with Fasudil at 2 μM, 10 μM or 50 μM, respectively, for 18 hours. (d) Cells were stimulated with LPS, as described above, in the presence of various concentrations of Fasudil. (e) Cells were preincubated for 1 h, 4 h or 12 h, respectively with Fasudil at 50 μM, prior to a LPS challenge in the continued presence of Fasudil at 50 μM. Stimulation experiments were routinely carried out twice.
Following microglial stimulations and treatments, culture supernatants were collected and stored at −20° C. until assayed. Supernatants were analyzed for the release of cyto- and chemokines by commercial enzyme-linked immunosorbent assay (ELISA) test systems. Levels of IL-6, CCL2 (monocyte chemoattractant protein, MCP-1), CCL3 (macrophage inflammatory protein, MIP-1α) and CCL5 (regulated upon activation normal T-cell expressed and presumably secreted, RANTES) and CXCL1 (Chemokine (C-X-C motif) ligand 1) were determined using DuoSet ELISA Development Kits (R&D Systems). TNFα (tumor necrosis factor α) was determined using MAXTM ELISA kit (Biolegend). Absorbance was measured at 450 nm (with a 540 nm reference wavelength) using a microplate reader (Bio-Rad).
On the technique in general: ELISA stands for enzyme-linked immunosorbent assay.

[8] abbreviates: LPS 10 ng/ml + Fasudil 50 μM, both genotypes.

Turning to `O=S(=O)(c1cccc2cnccc12)N1CCCNCC1` [Fasudil, 1-(5-isoquinolinesulfonyl)homopiperazine], the disease duration result in series [1] (presymptomatically treated female mice) is recorded as “prolonged time”. Also, the disease duration result in series [1] (symptomatically treated groups) is “did not show any significant alterations”. Moreover, the “survival of KA exposed motoneurons” value in series [2] is listed as “effectively protecting”. In series [3], the “hanging wire performance (180 s)” value was “not different”. Besides, the “microglial metabolic activity (WST-1)” value with primary microglia is recorded as “no reduction in metabolic activity”. The “survival of KA exposed motoneurons” value in series [4] is “protected motoneurons from KA induced cell death”. In series [5], the “sciatic nerve axonal pathology and NMJ integrity of gastrocnemius muscle” value is reported as “no significant differences”. In addition, the “onset of disease (neurological score 3)” value in series [6] is listed as “no statistically significant difference”. For the same molecule, in series [7] (LPS 10 ng/ml + Fasudil 2 μM), the proinflammatory cytokine release result is on record as “not efficient in significantly reducing”. The proinflammatory cytokine release result in series [7] (LPS 10 ng/ml + Fasudil 10 μM) was “not efficient in significantly reducing”. For the same molecule, in series [7] (setting [8]), the “release of CCL3” value is given as “markedly reduced”, the “release of CXCL1” value is recorded as “markedly reduced”, the “release of IL-6” value is “markedly reduced” and the “release of RANTES” value was “markedly reduced”. For the same molecule, in series [7] (setting [8]), the “release of TNFα” value was “markedly reduced”. Also, in series [7] (LPS 10 ng/ml + Fasudil 50 μM, relative to LPS alone (100%), slightly increased/unaffected), the “change of CCL2 release” value is “+8.9%”.
